Publication PMC12155888, “Design, Synthesis, and Antitumor Biological Evaluation of Galaxamide and Its Analogs” (Molecules, 2025)
Values joined by “and” are separate entries in the source; they are usually repeats but may differ in a detail not shown here. Identical values can stand only once. Like-named read-outs stand apart in the source and are kept apart here.

Legend:
[1] = head-to-tail macrolactamisation of free linear pentapeptide 10 (H-NMeAA...Leu-OH), PyBOP (2 equiv), DMAP (3 equiv); Route E: peptide solution (4.3 mM in MeCN) added dropwise over 10 h to PyBOP/DMAP in MeCN, further 3 h stirring; conditions: the molecule shown is the open-chain precursor; 15-membered ring; CH3CN; 1.0 mM; 20.0 °C; 13.0 h
[2] = amide bond; 15-membered ring; PyBOP/DMAP; MeCN; 4.3 mM

Compound | ring closure, isolated yield [1] | ring closure, isolated yield [2]
CN[C@H](CC(C)C)C(=O)N[C@H](CC(C)C)C(=O)N[C@H](CC(C)C)C(=O)N(C)[C@H](CC(C)C)C(=O)N[C@H](CC(C)C)C(=O)O [H-D-N(Me)Leu-D-Leu-D-Leu-D-N(Me)Leu-D-Leu-OH] | 48% | 
CN[C@H](CC(C)C)C(=O)N[C@H](CC(C)C)C(=O)N[C@@H](CC(C)C)C(=O)N(C)[C@H](CC(C)C)C(=O)N[C@H](CC(C)C)C(=O)O [H-D-N(Me)Leu-D-Leu-Leu-D-N(Me)Leu-D-Leu-OH] | 50% | 
CN[C@H](CC(C)C)C(=O)N[C@@H](CC(C)C)C(=O)N[C@H](CC(C)C)C(=O)N(C)[C@H](CC(C)C)C(=O)N[C@@H](CC(C)C)C(=O)O [H-D-N(Me)Leu-Leu-D-Leu-D-N(Me)Leu-Leu-OH] | 45% | 
CN[C@H](CC(C)C)C(=O)N[C@@H](CC(C)C)C(=O)N[C@@H](CC(C)C)C(=O)N(C)[C@H](CC(C)C)C(=O)N[C@@H](CC(C)C)C(=O)O [H-D-N(Me)Leu-Leu-Leu-D-N(Me)Leu-Leu-OH] | 48% | 
CN[C@@H](CC(C)C)C(=O)N[C@H](CC(C)C)C(=O)N[C@H](CC(C)C)C(=O)N(C)[C@@H](CC(C)C)C(=O)N[C@H](CC(C)C)C(=O)O [H-N(Me)Leu-D-Leu-D-Leu-N(Me)Leu-D-Leu-OH] | 54% | 
CN[C@@H](CC(C)C)C(=O)N[C@H](CC(C)C)C(=O)N[C@@H](CC(C)C)C(=O)N(C)[C@@H](CC(C)C)C(=O)N[C@H](CC(C)C)C(=O)O [H-N(Me)Leu-D-Leu-Leu-N(Me)Leu-D-Leu-OH] | 45% | 
CN[C@@H](CC(C)C)C(=O)N[C@@H](CC(C)C)C(=O)N[C@H](C)C(=O)N(C)[C@@H](CC(C)C)C(=O)N[C@@H](CC(C)C)C(=O)O [H-N(Me)Leu-Leu-D-Ala-N(Me)Leu-Leu-OH] | 49% | 
CN[C@@H](CC(C)C)C(=O)N[C@@H](CC(C)C)C(=O)N[C@H](CC(=O)OC)C(=O)N(C)[C@@H](CC(C)C)C(=O)N[C@@H](CC(C)C)C(=O)O [H-N(Me)Leu-Leu-D-Asp(OMe)-N(Me)Leu-Leu-OH] | 52% | 
CN[C@@H](CC(C)C)C(=O)N[C@@H](CC(C)C)C(=O)N[C@@H](C(=O)N(C)[C@@H](CC(C)C)C(=O)N[C@@H](CC(C)C)C(=O)O)C1CCCCC1 [H-N(Me)Leu-Leu-D-Chg-N(Me)Leu-Leu-OH] | 51% | 
CN[C@@H](CC(C)C)C(=O)N[C@@H](CC(C)C)C(=O)N[C@H](CC(C)C)C(=O)N(C)[C@@H](CC(C)C)C(=O)N[C@@H](CC(C)C)C(=O)O [H-N(Me)Leu-Leu-D-Leu-N(Me)Leu-Leu-OH] | 45% | 
CN[C@@H](CC(C)C)C(=O)N[C@@H](CC(C)C)C(=O)N[C@H](CCSC)C(=O)N(C)[C@@H](CC(C)C)C(=O)N[C@@H](CC(C)C)C(=O)O [H-N(Me)Leu-Leu-D-Met-N(Me)Leu-Leu-OH] | 52% | 
CN[C@@H](CC(C)C)C(=O)N[C@@H](CC(C)C)C(=O)N[C@H](Cc1ccccc1C)C(=O)N(C)[C@@H](CC(C)C)C(=O)N[C@@H](CC(C)C)C(=O)O [H-N(Me)Leu-Leu-D-Phe(2-Me)-N(Me)Leu-Leu-OH] | 53% | 
CN[C@@H](CC(C)C)C(=O)N[C@@H](CC(C)C)C(=O)N[C@H](Cc1cccc(F)c1)C(=O)N(C)[C@@H](CC(C)C)C(=O)N[C@@H](CC(C)C)C(=O)O [H-N(Me)Leu-Leu-D-Phe(3-F)-N(Me)Leu-Leu-OH] | 53% | 
CN[C@@H](CC(C)C)C(=O)N[C@@H](CC(C)C)C(=O)N[C@H](Cc1cccc(C)c1)C(=O)N(C)[C@@H](CC(C)C)C(=O)N[C@@H](CC(C)C)C(=O)O [H-N(Me)Leu-Leu-D-Phe(3-Me)-N(Me)Leu-Leu-OH] | 53% | 
CN[C@@H](CC(C)C)C(=O)N[C@@H](CC(C)C)C(=O)N[C@H](Cc1ccc(Br)cc1)C(=O)N(C)[C@@H](CC(C)C)C(=O)N[C@@H](CC(C)C)C(=O)O [H-N(Me)Leu-Leu-D-Phe(4-Br)-N(Me)Leu-Leu-OH] | 55% | 
CN[C@@H](CC(C)C)C(=O)N[C@@H](CC(C)C)C(=O)N[C@H](Cc1ccc(Cl)cc1)C(=O)N(C)[C@@H](CC(C)C)C(=O)N[C@@H](CC(C)C)C(=O)O [H-N(Me)Leu-Leu-D-Phe(4-Cl)-N(Me)Leu-Leu-OH] | 55% | 
CN[C@@H](CC(C)C)C(=O)N[C@@H](CC(C)C)C(=O)N[C@H](Cc1ccc(C)cc1)C(=O)N(C)[C@@H](CC(C)C)C(=O)N[C@@H](CC(C)C)C(=O)O [H-N(Me)Leu-Leu-D-Phe(4-Me)-N(Me)Leu-Leu-OH] | 50% | 
CN[C@@H](CC(C)C)C(=O)N[C@@H](CC(C)C)C(=O)N[C@H](Cc1ccccc1)C(=O)N(C)[C@@H](CC(C)C)C(=O)N[C@@H](CC(C)C)C(=O)O [H-N(Me)Leu-Leu-D-Phe-N(Me)Leu-Leu-OH] | 51% | 
CN[C@@H](CC(C)C)C(=O)N[C@@H](CC(C)C)C(=O)N[C@@H](C(=O)N(C)[C@@H](CC(C)C)C(=O)N[C@@H](CC(C)C)C(=O)O)c1ccccc1 [H-N(Me)Leu-Leu-D-Phg-N(Me)Leu-Leu-OH] | 51% | 
CN[C@@H](CC(C)C)C(=O)N[C@@H](CC(C)C)C(=O)N1CCC[C@@H]1C(=O)N(C)[C@@H](CC(C)C)C(=O)N[C@@H](CC(C)C)C(=O)O [H-N(Me)Leu-Leu-D-Pro-N(Me)Leu-Leu-OH] | 51% | 
CN[C@@H](CC(C)C)C(=O)N[C@@H](CC(C)C)C(=O)N[C@H](COC)C(=O)N(C)[C@@H](CC(C)C)C(=O)N[C@@H](CC(C)C)C(=O)O [H-N(Me)Leu-Leu-D-Ser(OMe)-N(Me)Leu-Leu-OH] | 52% | 
CN[C@@H](CC(C)C)C(=O)N[C@@H](CC(C)C)C(=O)N[C@H](Cc1ccc(OC)cc1)C(=O)N(C)[C@@H](CC(C)C)C(=O)N[C@@H](CC(C)C)C(=O)O [H-N(Me)Leu-Leu-D-Tyr(OMe)-N(Me)Leu-Leu-OH] | 52% | 
CN[C@@H](CC(C)C)C(=O)N[C@@H](CC(C)C)C(=O)N[C@@H](C(=O)N(C)[C@@H](CC(C)C)C(=O)N[C@@H](CC(C)C)C(=O)O)C(C)C [H-N(Me)Leu-Leu-D-Val-N(Me)Leu-Leu-OH] | 50% | 
CN[C@@H](CC(C)C)C(=O)N[C@@H](CC(C)C)C(=O)NCC(=O)N(C)[C@@H](CC(C)C)C(=O)N[C@@H](CC(C)C)C(=O)O [H-N(Me)Leu-Leu-Gly-N(Me)Leu-Leu-OH] | 51% | 

Compound | ring closure, isolated yield [1] | ring closure, isolated yield [2]
Cyclo(Me-D-Leu-D-Leu-D-Leu-Me-D-Leu-D-Leu) |  | 48%
Cyclo(Me-D-Leu-D-Leu-L-Leu-Me-D-Leu-D-Leu) |  | 50%
Cyclo(Me-D-Leu-L-Leu-D-Leu-Me-D-Leu-L-Leu) |  | 45%
Cyclo(Me-D-Leu-L-Leu-L-Leu-Me-D-Leu-L-Leu) |  | 48%
Cyclo(Me-L-Leu-D-Leu-D-Leu-Me-L-Leu-D-Leu) |  | 54%
Cyclo(Me-L-Leu-D-Leu-L-Leu-Me-L-Leu-D-Leu) |  | 45%
Cyclo(Me-L-Leu-L-Leu-2-Me-D-Phe-Me-L-Leu-L-Leu) |  | 53%
Cyclo(Me-L-Leu-L-Leu-3-Flu-D-Phe-Me-L-Leu-L-Leu) |  | 53%
Cyclo(Me-L-Leu-L-Leu-3-Me-D-Phe-Me-L-Leu-L-Leu) |  | 53% and 50%
Cyclo(Me-L-Leu-L-Leu-4-Bro-D-Phe-Me-L-Leu-L-Leu) |  | 55%
Cyclo(Me-L-Leu-L-Leu-4-Chl-D-Phe-Me-L-Leu-L-Leu) |  | 55%
Cyclo(Me-L-Leu-L-Leu-D-Ala-Me-L-Leu-L-Leu) |  | 49%
Cyclo(Me-L-Leu-L-Leu-D-Leu-Me-L-Leu-L-Leu) |  | 45%
Cyclo(Me-L-Leu-L-Leu-D-Met-Me-L-Leu-L-Leu) |  | 52%
Cyclo(Me-L-Leu-L-Leu-D-Phe-Me-L-Leu-L-Leu) |  | 51%
Cyclo(Me-L-Leu-L-Leu-D-Pro-Me-L-Leu-L-Leu) |  | 51%
Cyclo(Me-L-Leu-L-Leu-D-Val-Me-L-Leu-L-Leu) |  | 50%
Cyclo(Me-L-Leu-L-Leu-D-cyclohexyl-Gly-Me-L-Leu-L-Leu) |  | 51%
Cyclo(Me-L-Leu-L-Leu-D-phenyl-Gly-Me-L-Leu-L-Leu) |  | 51%
Cyclo(Me-L-Leu-L-Leu-Gly-Me-L-Leu-L-Leu) |  | 51%
Cyclo(Me-L-Leu-L-Leu-Methylester-D-Asp-Me-L-Leu-L-Leu) |  | 52%
Cyclo(Me-L-Leu-L-Leu-O-Me-D-Ser-Me-L-Leu-L-Leu) |  | 52%
Cyclo(Me-L-Leu-L-Leu-O-Tyr-Me-L-Leu-L-Leu) |  | 52%
